Results as given in patent US12201609B2, “Saroglitazar for the treatment of hepatocellular carcinoma” (CADILA HEALTHCARE LIMITED, priority 2018, dated 2025).

Tested on: Hepatocellular Carcinoma Induced by Intraperitoneal Injection of Diethylnitrosamine in C57/BL6 Mice
Experiment: Saroglitazar efficacy in hepatocellular carcinoma induced by diethylnitrosamine (DEN) injection and CDAHFD feeding in mice
Format: in vivo, C57BL/6 male mice
Settings: CDAHFD-DEN mice; for Serum ALT levels, % Change Vs Disease Control / Serum AST levels, % Change Vs Disease Control / Serum TG levels, % Change Vs Disease Control / % animals showing liver tumor / No. of animal with tumor / No. of liver tumors/animal / Serum ALT levels / Serum AST levels / Serum TG levels: p.o.; for % animals showing liver tumor / No. of animal with tumor / No. of liver tumors/animal: 27 weeks treatment; for Serum ALT levels / Serum AST levels / Serum TG levels: at termination
Excerpt: Evaluation of Saroglitazar's efficacy in Hepatocellular Carcinoma Induced by Intraperitoneal Injection of Diethylnitrosamine in C57/BL6 Mice.
In this study, hepatocellular carcinoma (HCC) was induced in C57BL/6 male mice first by injecting them with diethylnitrosamine (DEN) and by then feeding them a choline-deficient, L-amino acid-defined, high-fat diet (CDAHFD); Developed an experimental mouse model of hepatocellular carcinoma (Ohno T, Shimizu M, Shirakami Y, Baba A, Kochi T, Kubota M, et al. (2015) Metformin Suppresses Diethylnitrosamine-Induced Liver Tumorigenesis in Obese and Diabetic C57BL/KsJ−+Leprdb/+Leprdb Mice. PLoS ONE 10(4): e0124081; Journal of Cancer, 2018; 9(5): 914-922;)
The objective of this study was to evaluate the efficacy of Saroglitazar for prevention and or regression of hepatocellular carcinoma in mice after intraperitoneal injection of diethylnitrosamine and feeding of Choline deficient, L-amino acid-defined, High-fat Diet.
HCC was induced in C57BL/6 male mice by feeding them a choline-deficient, L-amino acid-defined, high-fat diet (CDAHFD) and administration of diethylnitrosamine (DEN). DEN was administered one-time by intraperitoneal route at the age of 3-weeks. Treatment with Saroglitazar (1 and 3 mg/kg) was initiated after 8 weeks of CDAHFD initiation and continued for 27 weeks.
After 8 weeks of CDAHFD diet (or DEN administration) blood collection was performed for serum ALT, AST and on the basis serum ALT level animals were divided in to following groups: • 1. Control for CDAHFD+Vehicle (n=10)—Normal Control • 2. CDAHFD—Saline+Vehicle (n=10)—CDAHFD Control • 3. CDAHFD—DEN+Vehicle (n=15)—Disease Control • 4. CDAHFD—DEN+Saroglitazar 1 mg/kg, p.o. (n=15)—D-Saro (1 mg/kg, p.o.) • 5. CDAHFD—DEN+Saroglitazar 3 mg/kg, p.o. (n=15)—D-Saro (3 mg/kg, p.o.)
Test compound formulation was prepared in Tween 80 and 0.5% sodium CMC in ratio of 0.5:99.5 in such that volume of administration will be 10 ml/kg.
Treatment along with diet was continued for 27 weeks.
In this study almost 50% animals from each group were terminated at 31 weeks after DEN injection and remaining 50% animals were sacrificed at 35 weeks after DEN administration (i.e. completion of 27 weeks of treatment). At termination, blood collection was performed for serum parameters like ALT, AST and TG. Animals were sacrificed; spleen and liver will be collected and weighed. Liver will be observed for presence of tumors, number of tumors and size of tumors. Liver was collected for liver biochemistry, histology

CCO[C@@H](Cc1ccc(OCCn2c(C)ccc2-c2ccc(SC)cc2)cc1)C(=O)O [Saroglitazar]
prevention of hepatic carcinogenesis (3 mg/kg dose): 100%
tumor in liver (in words) (3 mg/kg dose): did not show any tumor in liver
reduction in serum ALT (3 mg/kg, vs disease control): 40%
reduction in serum AST (3 mg/kg, vs disease control): 44%
effect on liver tumor incidence (in words) (1 and 3 mg/kg): dose dependent effect on liver tumor incidence
serum triglycerides levels (in words) (1 and 3 mg/kg): dose dependent reduction
Serum ALT levels, % Change Vs Disease Control (Saroglitazar 1 mg/kg): −33.6%
Serum AST levels, % Change Vs Disease Control (Saroglitazar 1 mg/kg): −36.2%
Serum TG levels, % Change Vs Disease Control (Saroglitazar 1 mg/kg): −38.4%
% animals showing liver tumor (Saroglitazar 1 mg/kg): 20.0%
No. of animal with tumor (Saroglitazar 1 mg/kg): 3 out of 15
No. of liver tumors/animal (Saroglitazar 1 mg/kg): 0.3
Serum ALT levels (Saroglitazar 1 mg/kg): 232.3 U/L
Serum AST levels (Saroglitazar 1 mg/kg): 231.1 U/L
Serum TG levels (Saroglitazar 1 mg/kg): 42.7 mg/dL
Serum ALT levels, % Change Vs Disease Control (Saroglitazar 3 mg/kg): −39.9%
Serum AST levels, % Change Vs Disease Control (Saroglitazar 3 mg/kg): −43.9%
Serum TG levels, % Change Vs Disease Control (Saroglitazar 3 mg/kg): −54.6%
% animals showing liver tumor (Saroglitazar 3 mg/kg): 0.0%
No. of animal with tumor (Saroglitazar 3 mg/kg): 0 out of 15
No. of liver tumors/animal (Saroglitazar 3 mg/kg): 0.0
Serum ALT levels (Saroglitazar 3 mg/kg): 210.5 U/L
Serum AST levels (Saroglitazar 3 mg/kg): 203.0 U/L
Serum TG levels (Saroglitazar 3 mg/kg): 31.5 mg/dL
liver injury markers, serum ALT and AST (in words) (Saroglitazar treatment): significant reduction
